This note sets out measurements from patent publication US5106870A, “Methods for the use of thromboxane A2 antagonists” (National Research Development Corporation, priority 1990, dated 1992).

The test system of experiment [1] is human washed platelets. The experiment is described as follows: Analysis of partial agonism (shape change/aggregation) in human washed platelets. Type of experiment: cell-based. To be noted: 5 and 10 min incubation. As for the experimental part: b. Analysis of partial agonism with SC-46985 (human washed platelets)
Sixty ml of blood were drawn into 1/10 volume of CCD (100 mM Na Citrate and 136 mM glucose, pH 6.5 with HCl) and PRP prepared as described above. PRP was placed on ice for 15 min. One half of the volume of CCD was added and recentrifuged. The platelet pellet was gently resuspended in 1/2 the original volume of PRP in a 0° C. modified Tangen-Hepes-BSA buffer (145 mM NaCl, 5 mM KCl, 0.05 mM CaCl2, 0.1 mM MgCl2, 11 mM glucose, 15 mM Hepes, 1 mg/ml bovine serum albumin, pH adjusted to 7.4 with NaOH). The resuspended platelets were incubated undisturbed at 37° C. for 30 min. After incubation a platelet count was determined and adjusted to 3×10^8 cells/ml with the Tangen-Hepes-BSA buffer.
425 μl of the washed human platelet suspension was incubated in the aggregometer in the presence of 16 mM CaCl2 (50 μl) and SC-46985 for 5 and 10 min. […] (In a study similar to (a) above, aliquots of human washed platelets were incubated with various concentrations of SC-46985 and U-46619 to determine dose-related inhibition of aggregation).

Experiment [2] has as its system U-46619 induced platelet aggregation. The experiment can be described thus: Ex vivo inhibition of U-46619 induced platelet aggregation, intravenous. Type of experiment: in vivo. The following applies: rat. Here is the method: (§1) II. Ex vivo--(rat) Inhibition of U-46619 induced platelet aggregation
Rats were anesthetized with ether and the jugular vein exposed. Compound dissolved in 0.1M Na Carbonate was injected as a bolus into the jugular vein. Blood (5 ml, heparanized) was sampled 30 sec. later from the abdominal aorta. PRP was prepared by quick centrifugation (Eppendorf, model 5415 at 12,000 rpm for 5 sec. PPP was prepared by centrifugation for 2 min. PRP was diluted 1:1 with PPP from similarly treated animals. Aggregation was monitored for 5 min. and inhibition was determined as previously described.

Experiment [3] has the same test system. The experiment is described as follows: Ex vivo inhibition of U-46619 induced platelet aggregation, intragastric. The following applies: rat. Type of experiment: in vivo. As for the experimental part: as §1
Compounds dissolved in Na Carbonate were administered to conscious rats with an I.G. tube. Fifteen minutes post administration (time previously determined to show maximum effect), rats were anesthetized with ether and blood was sampled from the abdominal aorta, PRP was prepared as described in II a.

Experiment [4] concerns U-46619-induced platelet aggregation. The experiment is described as follows: Inhibition of U-46619-induced platelet aggregation in rat platelet rich plasma (in vitro). Type of experiment: cell-based. The following applies: rat PRP. As for the experimental part: a. Inhibition of U-46619-induced platelet aggregation (rat)
Platelet rich plasma (PRP) was prepared from heparanized whole blood (5 units/ml) drawn from the abdominal aorta of ether anesthetized rats. PRP was prepared by centrifugation (Sorvall RC2B, DuPont, Wilmington, Del.) of the whole blood at 150×g for 10 min. Platelet poor plasma (PPP) was prepared by centrifugation at 1200×g for 20 min. Aliquots of PRP and PPP were used to standardize the aggregometer (Payton, Buffalo, N.Y., model 300B) with the recorder (Riken Denshi 2 channel recorder, Payton, model SP-H5P) for measurement of minimum and maximum light transmittance, respectively.
Platelet aggregation was measured as an increase in light transmittance. PRP (390 μl aliquot +5 μl compound vehicle) was preincubated for 1 min. at 37° C., with stirring at 900 rpm in the aggregometer. The vehicle control response was obtained by adding U-46619 (Cayman Chemical, Ann Arbor, Mich., 1-2 units/cuvette/10 μl) to the aliquot of PRP. Aggregation was monitored until maximum aggregation was achieved (approximately 3 min. following the addition of U-46619). Amount of aggregation was measured by grids on the strip chart.
Compounds were dissolved in either ethanol (ETOH) or Na2 CO3 (0.1M) and preincubated at the desired concentration in PRP for 1 min. at 37° C. with stirring. At the end of the preincubation, U-46619 was added and aggregation measured. Inhibition of aggregation by compound was calculated as percent inhibition of the control aggregation response to U-46619. Dose response curves were generated and IC50 's calculated by linear regression.

Molecules are shown by their SMILES.

As to `CC(=NNC(=S)Nc1ccccc1)[C@H]1[C@@H]2CC[C@@H](C2)[C@@H]1C/C=C\CCCC(=O)O` [SC-46985], in experiment [1], the “partial agonist activity (shape change or aggregation)” value is on record as “no evidence of shape change or aggregation”. For the same molecule, in experiment [2], the “less potent than SC-44161 (ED50)” value is on record as “approximately 1.5 times”.
As for `CC(=NNC(=S)Nc1ccccc1)[C@@H]1[C@H]2CC[C@H](C2)[C@H]1C/C=C/CCCC(=O)O` [SC-47721, 7-[3α-[1-[[(Phenylamino)thioxomethyl]hydrazono]ethyl]-1R,1α,4α-bicyclo-[2.2.1]hept-2β-yl]-5E-heptenoic acid], in experiment [3] (1 mg/kg, 15 min post administration), the “inhibition of U-46619 induced aggregation” value is on record as 37.5%. Moreover, in experiment [4] (in vitro), the “more potent than SC-44161” value is 10-50 times and the “potency compared with SC-46984” value is listed as “less potent than SC-46984”.
For `CC(=NNC(=S)Nc1ccccc1)[C@@H]1[C@H]2CC[C@H](C2)[C@H]1C/C=C\CCCC(=O)O` (relative stereo) [SC-44161, (±)7-[3α[[(Phenylamino)thioxomethyl]hydrazono]ethyl]1α,4α-bicyclo[2.2.1]hept-2β-yl]-5Z-heptenoic acid], the “more potent in aqueous solution than when dissolved in ethanol” value in experiment [4] (aqueous (Na Carbonate) vs ethanol) is listed as 5-10 fold.
Regarding `CC(=NNC(=S)Nc1ccccc1)[C@@H]1[C@H]2CC[C@H](C2)[C@H]1C/C=C\CCCC(=O)O` [SC-46984, 7-[3α-[1-[[(Phenylamino)thioxomethyl]hydrazono]ethyl]-1R,1α,4α-bicyclo-[2.2.1]hept-2β-yl]-5Z-heptenoic acid], the “more potent than SC-44161 (ED50)” value in experiment [2] is “approximately 3.5 times”. Moreover, the “more potent than SC-44161 (I.G. ED50)” value in experiment [3] was “approximately 2.8 times”. The “more potent than SC-44161” value in experiment [4] (in vitro) is recorded as “approximately 100 times”.
